Results on seven compounds are retold here after PubChem BioAssay (NCI).

Among the test systems are ACHN renal; CAKI-1 renal; HCT-15 colon; HOP-62 NSCLC; K-562 leukemia; KM12 colon; MALME-3M melanoma; MDA-MB-435; MOLT-4 leukemia; NCI-H460 lung; NCI/ADR-RES ovarian; SK-MEL-2 melanoma; SK-MEL-28 melanoma; SK-OV-3 ovarian; SN12C renal; SW-620 colon; RPMI-8226 leukemia; RXF 393 renal; SNB-19 CNS.
What all share (experiment): DTP human tumour cell line panel, 48 h

Each structure is given as a SMILES string.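 Cultured in 96-well plates, cells were exposed to test compound for 48 hours across five concentrations. At the TGI there is no net growth.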

In general, TGI refers to the concentration at which net growth stops. Lower therefore signals greater sensitivity of the cells.

Take `O=[N+]([O-])c1ccc(C2=NOC(c3ccccc3)N2C23CC4CC(CC(C4)C2)C3)cc1` (stereo unspecified): the TGI with ACHN renal is over 100 µM; with CAKI-1 renal it was 3.23 µM; with HCT-15 colon, over 100 µM; with HOP-62 NSCLC, 80.2 µM; with K-562 leukemia, 39.9 µM; in the experiment with KM12 colon, 71.9 µM. Also, the TGI in the experiment with MALME-3M melanoma was 85.5 µM; in the experiment with MDA-MB-435, 44.5 µM; with MOLT-4 leukemia it was 37.8 µM; in the experiment with NCI-H460 lung, 47.5 µM; in the experiment with NCI/ADR-RES ovarian it was over 100 µM; with SK-MEL-2 melanoma, 37.5 µM. In addition, the TGI with SK-MEL-28 melanoma, with SK-OV-3 ovarian, with SN12C renal and with SW-620 colon was over 100 µM throughout.
Regarding `O=C(Cn1c2ccc(Br)cc2c2nc3ccccc3nc21)NNC(=O)NC1CCCCC1`, the TGI with ACHN renal was over 100 µM; in the experiment on CAKI-1 renal it was over 100 µM; in the experiment on HOP-62 NSCLC, 78.8 µM; in the experiment on K-562 leukemia, over 100 µM; with KM12 colon, over 100 µM; with MALME-3M melanoma, over 100 µM. Further, the TGI in the experiment with MDA-MB-435 is over 100 µM; with MOLT-4 leukemia, 67.1 µM; in the experiment with NCI-H460 lung it was over 100 µM; with RPMI-8226 leukemia it was over 100 µM; in the experiment with RXF 393 renal, over 100 µM; in the experiment on SK-MEL-2 melanoma it was over 100 µM. Besides, the TGI in the experiment on SK-MEL-28 melanoma, in the experiment with SK-OV-3 ovarian, with SN12C renal, in the experiment with SNB-19 CNS and with SW-620 colon was over 100 µM throughout.
Take `NN/C(=N\S(=O)(=O)c1cc(S(=O)(=O)c2ccccc2)cs1)Nc1ccc(Cl)cc1`: the TGI was over 100 µM in the experiment on ACHN renal; over 100 µM in the experiment on CAKI-1 renal; over 100 µM in the experiment on HCT-15 colon; over 100 µM in the experiment on HOP-62 NSCLC; over 100 µM with K-562 leukemia; 89.6 µM in the experiment with KM12 colon. The TGI is 56.2 µM with MOLT-4 leukemia; 56.6 µM in the experiment on NCI-H460 lung; over 100 µM with NCI/ADR-RES ovarian; over 100 µM in the experiment with RPMI-8226 leukemia; 53.9 µM in the experiment with RXF 393 renal; 38.2 µM in the experiment on SK-MEL-2 melanoma. Further, the TGI in the experiment with SK-MEL-28 melanoma, with SK-OV-3 ovarian, in the experiment on SN12C renal, in the experiment with SNB-19 CNS and in the experiment with SW-620 colon was over 100 µM throughout.
Turning to `Cn1c(=O)oc2cc(C(O)CN3CCN(Cc4ccc5c(c4)OCO5)CC3)ccc21` (stereo unspecified), the TGI with ACHN renal, in the experiment with CAKI-1 renal, with HCT-15 colon, in the experiment on HOP-62 NSCLC, with K-562 leukemia and in the experiment with KM12 colon was over 100 µM in each case. For the same compound, the TGI in the experiment with MALME-3M melanoma, in the experiment with MDA-MB-435, in the experiment on MOLT-4 leukemia, in the experiment on NCI-H460 lung, with NCI/ADR-RES ovarian and in the experiment with RXF 393 renal was over 100 µM in each case. Besides, the concentration for total growth inhibition (TGI) with SK-MEL-28 melanoma, in the experiment on SK-OV-3 ovarian, in the experiment on SN12C renal, with SNB-19 CNS and in the experiment with SW-620 colon was over 100 µM throughout.
For the compound `COC(=O)CSc1cc(Cl)c(C)cc1S(=O)(=O)Nc1n[nH]c(N)n1`, the TGI in the experiment on ACHN renal, in the experiment on CAKI-1 renal, with HCT-15 colon, in the experiment on HOP-62 NSCLC, in the experiment on K-562 leukemia and in the experiment with KM12 colon was over 10 µM throughout. The TGI with MALME-3M melanoma, with MOLT-4 leukemia, with NCI-H460 lung, in the experiment with NCI/ADR-RES ovarian, with RPMI-8226 leukemia and with RXF 393 renal was over 10 µM in each case. Further, the TGI with SK-MEL-2 melanoma, in the experiment on SK-MEL-28 melanoma, in the experiment with SK-OV-3 ovarian, with SN12C renal, in the experiment with SNB-19 CNS and in the experiment on SW-620 colon was over 10 µM in each case.
Turning to `Cc1ccc(N=NC(=O)NNc2ccc(C)cc2Br)c(Br)c1`, the TGI in the experiment with ACHN renal is 89.1 µM; in the experiment on CAKI-1 renal it was over 100 µM; in the experiment with HCT-15 colon, 65.3 µM; in the experiment on HOP-62 NSCLC, 41.1 µM; in the experiment with K-562 leukemia it was 51.5 µM; in the experiment with MALME-3M melanoma, 36.4 µM. Moreover, the TGI in the experiment with MDA-MB-435 is over 100 µM; with MOLT-4 leukemia it was 60.4 µM; in the experiment on NCI-H460 lung it was 47.3 µM; in the experiment with RPMI-8226 leukemia it was 66.5 µM; in the experiment with SK-MEL-2 melanoma it was 32 µM; in the experiment with SK-MEL-28 melanoma, 47.4 µM. In addition, the TGI in the experiment on SN12C renal was 51.2 µM; in the experiment with SNB-19 CNS, over 100 µM; in the experiment on SW-620 colon, over 100 µM.
Consider `CC(/C=C/c1ccccc1)=N\NC(=S)N/N=C(C)/C=C/c1ccccc1`, for which the TGI in the experiment on ACHN renal is over 100 µM; in the experiment with HCT-15 colon, over 100 µM; in the experiment with HOP-62 NSCLC, 57.7 µM; in the experiment with K-562 leukemia, over 100 µM; with MALME-3M melanoma, over 100 µM; in the experiment with MDA-MB-435, over 100 µM. The TGI in the experiment with MOLT-4 leukemia was over 100 µM; in the experiment on NCI-H460 lung, 25.6 µM; in the experiment on NCI/ADR-RES ovarian it was 99.5 µM; with RXF 393 renal it was 40.7 µM; with SK-MEL-2 melanoma it was 50.3 µM; in the experiment with SK-MEL-28 melanoma, over 100 µM. Moreover, the TGI with SK-OV-3 ovarian was over 100 µM; in the experiment on SN12C renal, over 100 µM; with SNB-19 CNS it was 74.7 µM; with SW-620 colon, over 100 µM.
